According to the NIST ThermoML archive (doi:10.1021/acs.jced.8b00132):
Where “and” joins values, the source holds several entries; their conditions need not be identical. Equal values may be shown once. ± gives the expanded uncertainty stated by the source.

Which thermal conductivity (359.78 K, 24942 kPa, Liquid, transient hot wire) does the source give for `O=C(C(F)(F)C(F)(F)F)C(F)(C(F)(F)F)C(F)(F)F` [dodecafluoro-2-methylpentan-3-one] here?
The thermal conductivity was 0.06009 ± 0.0012 W/m/K.

What about the thermal conductivity (359.79 K, 91 kPa, Gas, transient hot wire) of the same compound?
Its thermal conductivity is 0.01762 ± 0.0011 W/m/K.

What about the thermal conductivity (359.79 K, 92 kPa, Gas, transient hot wire) of the same compound?
The thermal conductivity was 0.01704 ± 0.001 W/m/K.

What about the thermal conductivity (359.83 K, 255 kPa, Gas, transient hot wire) of the same compound?
The thermal conductivity was 0.01639 ± 0.001 W/m/K and 0.01638 ± 0.001 W/m/K.

What about the thermal conductivity (359.85 K, 7097 kPa, Liquid, transient hot wire) of the same compound?
Its thermal conductivity is 0.05177 ± 0.0011 W/m/K.

What about the thermal conductivity (359.85 K, 7099 kPa, Liquid, transient hot wire) of the same compound?
The thermal conductivity was 0.05171 ± 0.0011 W/m/K.

And the thermal conductivity (359.89 K, 18005 kPa, Liquid, transient hot wire)?
Its thermal conductivity is 0.05715 ± 0.0012 W/m/K.

What about the thermal conductivity (359.9 K, 18006 kPa, Liquid, transient hot wire) of the same compound?
The thermal conductivity was 0.05719 ± 0.0012 W/m/K.

What about the thermal conductivity (359.92 K, 186 kPa, Gas, transient hot wire) of the same compound?
The thermal conductivity was 0.01654 ± 0.001 W/m/K and 0.01651 ± 0.001 W/m/K.

And the thermal conductivity (359.92 K, 3418 kPa, Liquid, transient hot wire)?
The thermal conductivity was 0.04946 ± 0.001 W/m/K.

What about the thermal conductivity (359.93 K, 3420 kPa, Liquid, transient hot wire) of the same compound?
Its thermal conductivity is 0.04957 ± 0.001 W/m/K.

And the thermal conductivity (359.99 K, 11963 kPa, Liquid, transient hot wire)?
The thermal conductivity was 0.05432 ± 0.0011 W/m/K.

And the thermal conductivity (360 K, 26 kPa, Gas, transient hot wire)?
Its thermal conductivity is 0.01679 ± 0.001 W/m/K.

And the thermal conductivity (360.01 K, 26 kPa, Gas, transient hot wire)?
The thermal conductivity was 0.01682 ± 0.001 W/m/K.

What about the thermal conductivity (360.01 K, 11965 kPa, Liquid, transient hot wire) of the same compound?
Its thermal conductivity is 0.05404 ± 0.0011 W/m/K.

And the thermal conductivity (360.03 K, 353 kPa, Liquid, transient hot wire)?
The thermal conductivity was 0.0473 ± 0.00099 W/m/K.

What about the thermal conductivity (360.04 K, 353 kPa, Liquid, transient hot wire) of the same compound?
The thermal conductivity was 0.0473 ± 0.00099 W/m/K.

What about the thermal conductivity (360.05 K, 352 kPa, Liquid, transient hot wire) of the same compound?
The thermal conductivity was 0.04729 ± 0.00099 W/m/K and 0.0475 ± 0.00099 W/m/K.

And the thermal conductivity (360.09 K, 92 kPa, Gas, transient hot wire)?
Its thermal conductivity is 0.01711 ± 0.0011 W/m/K and 0.01617 ± 0.001 W/m/K.

And the thermal conductivity (360.11 K, 7096 kPa, Liquid, transient hot wire)?
Its thermal conductivity is 0.05168 ± 0.0011 W/m/K.

What about the thermal conductivity (360.11 K, 7097 kPa, Liquid, transient hot wire) of the same compound?
The thermal conductivity was 0.0517 ± 0.0011 W/m/K.

And the thermal conductivity (360.19 K, 3417 kPa, Liquid, transient hot wire)?
Its thermal conductivity is 0.04945 ± 0.001 W/m/K.

And the thermal conductivity (360.19 K, 3421 kPa, Liquid, transient hot wire)?
The thermal conductivity was 0.04947 ± 0.001 W/m/K.

What about the thermal conductivity (360.32 K, 353 kPa, Liquid, transient hot wire) of the same compound?
The thermal conductivity was 0.0473 ± 0.00099 W/m/K.

And the thermal conductivity (360.33 K, 352 kPa, Liquid, transient hot wire)?
The thermal conductivity was 0.0473 ± 0.00099 W/m/K and 0.04729 ± 0.00099 W/m/K.

What about the thermal conductivity (360.33 K, 353 kPa, Liquid, transient hot wire) of the same compound?
The thermal conductivity was 0.04728 ± 0.00098 W/m/K.

And the thermal conductivity (360.34 K, 26 kPa, Gas, transient hot wire)?
Its thermal conductivity is 0.01682 ± 0.001 W/m/K and 0.01675 ± 0.001 W/m/K.

What about the thermal conductivity (373.92 K, 307 kPa, Gas, hot wire) of the same compound?
Its thermal conductivity is 0.01816 ± 0.00086 W/m/K.

What about the thermal conductivity (373.92 K, 308 kPa, Gas, hot wire) of the same compound?
The thermal conductivity was 0.01812 ± 0.00086 W/m/K.

And the thermal conductivity (373.97 K, 206 kPa, Gas, hot wire)?
Its thermal conductivity is 0.01727 ± 0.00081 W/m/K.

What about the thermal conductivity (373.97 K, 207 kPa, Gas, hot wire) of the same compound?
The thermal conductivity was 0.0173 ± 0.00081 W/m/K.

What about the thermal conductivity (374 K, 102 kPa, Gas, hot wire) of the same compound?
Its thermal conductivity is 0.01713 ± 0.00081 W/m/K and 0.01722 ± 0.00081 W/m/K.

What about the thermal conductivity (374.03 K, 306 kPa, Gas, hot wire) of the same compound?
The thermal conductivity was 0.01829 ± 0.00087 W/m/K and 0.01823 ± 0.00086 W/m/K.

And the thermal conductivity (374.08 K, 25 kPa, Gas, hot wire)?
The thermal conductivity was 0.01652 ± 0.00078 W/m/K and 0.01647 ± 0.00078 W/m/K.

And the thermal conductivity (374.1 K, 205 kPa, Gas, hot wire)?
Its thermal conductivity is 0.01731 ± 0.00082 W/m/K.

And the thermal conductivity (374.1 K, 206 kPa, Gas, hot wire)?
The thermal conductivity was 0.01733 ± 0.00082 W/m/K.

And the thermal conductivity (374.14 K, 102 kPa, Gas, hot wire)?
The thermal conductivity was 0.01694 ± 0.0008 W/m/K and 0.01695 ± 0.0008 W/m/K.

And the thermal conductivity (374.15 K, 305 kPa, Gas, hot wire)?
Its thermal conductivity is 0.01837 ± 0.00087 W/m/K.

What about the thermal conductivity (374.17 K, 305 kPa, Gas, hot wire) of the same compound?
The thermal conductivity was 0.01816 ± 0.00086 W/m/K.

What about the thermal conductivity (374.21 K, 25 kPa, Gas, hot wire) of the same compound?
Its thermal conductivity is 0.01648 ± 0.00078 W/m/K.

And the thermal conductivity (374.22 K, 25 kPa, Gas, hot wire)?
The thermal conductivity was 0.01645 ± 0.00078 W/m/K.

And the thermal conductivity (374.23 K, 205 kPa, Gas, hot wire)?
The thermal conductivity was 0.0174 ± 0.00082 W/m/K and 0.01741 ± 0.00082 W/m/K.

What about the thermal conductivity (374.28 K, 102 kPa, Gas, hot wire) of the same compound?
Its thermal conductivity is 0.01696 ± 0.0008 W/m/K.

And the thermal conductivity (374.28 K, 304 kPa, Gas, hot wire)?
Its thermal conductivity is 0.01841 ± 0.00087 W/m/K.

What about the thermal conductivity (374.28 K, 305 kPa, Gas, hot wire) of the same compound?
The thermal conductivity was 0.01852 ± 0.00088 W/m/K.

What about the thermal conductivity (374.29 K, 102 kPa, Gas, hot wire) of the same compound?
Its thermal conductivity is 0.01693 ± 0.0008 W/m/K.

And the thermal conductivity (374.35 K, 25 kPa, Gas, hot wire)?
The thermal conductivity was 0.01656 ± 0.00078 W/m/K and 0.01653 ± 0.00078 W/m/K.

What about the thermal conductivity (374.36 K, 203 kPa, Gas, hot wire) of the same compound?
The thermal conductivity was 0.01755 ± 0.00083 W/m/K.

What about the thermal conductivity (374.37 K, 204 kPa, Gas, hot wire) of the same compound?
Its thermal conductivity is 0.01751 ± 0.00083 W/m/K.

What about the thermal conductivity (374.42 K, 102 kPa, Gas, hot wire) of the same compound?
The thermal conductivity was 0.01695 ± 0.0008 W/m/K.

What about the thermal conductivity (374.42 K, 303 kPa, Gas, hot wire) of the same compound?
Its thermal conductivity is 0.01848 ± 0.00088 W/m/K and 0.01842 ± 0.00087 W/m/K.

And the thermal conductivity (374.43 K, 102 kPa, Gas, hot wire)?
The thermal conductivity was 0.01693 ± 0.0008 W/m/K.

What about the thermal conductivity (374.49 K, 376 kPa, Gas, transient hot wire) of the same compound?
Its thermal conductivity is 0.01734 ± 0.0011 W/m/K.

And the thermal conductivity (374.5 K, 25 kPa, Gas, hot wire)?
The thermal conductivity was 0.01656 ± 0.00078 W/m/K and 0.01659 ± 0.00078 W/m/K.

And the thermal conductivity (374.5 K, 377 kPa, Gas, transient hot wire)?
The thermal conductivity was 0.01734 ± 0.0011 W/m/K.

What about the thermal conductivity (374.51 K, 202 kPa, Gas, hot wire) of the same compound?
The thermal conductivity was 0.0176 ± 0.00083 W/m/K.

What about the thermal conductivity (374.51 K, 203 kPa, Gas, hot wire) of the same compound?
The thermal conductivity was 0.01762 ± 0.00083 W/m/K.

What about the thermal conductivity (374.52 K, 308 kPa, Gas, transient hot wire) of the same compound?
Its thermal conductivity is 0.01738 ± 0.0011 W/m/K.

And the thermal conductivity (374.53 K, 307 kPa, Gas, transient hot wire)?
The thermal conductivity was 0.01737 ± 0.0011 W/m/K.

What about the thermal conductivity (374.58 K, 101 kPa, Gas, hot wire) of the same compound?
Its thermal conductivity is 0.01698 ± 0.0008 W/m/K.

What about the thermal conductivity (374.59 K, 101 kPa, Gas, hot wire) of the same compound?
The thermal conductivity was 0.01691 ± 0.0008 W/m/K.

What about the thermal conductivity (374.59 K, 207 kPa, Gas, transient hot wire) of the same compound?
The thermal conductivity was 0.01758 ± 0.0011 W/m/K.

What about the thermal conductivity (374.6 K, 206 kPa, Gas, transient hot wire) of the same compound?
Its thermal conductivity is 0.01761 ± 0.0011 W/m/K.

And the thermal conductivity (374.66 K, 25 kPa, Gas, hot wire)?
Its thermal conductivity is 0.0166 ± 0.00078 W/m/K and 0.01657 ± 0.00078 W/m/K.

And the thermal conductivity (374.69 K, 376 kPa, Gas, transient hot wire)?
The thermal conductivity was 0.01733 ± 0.0011 W/m/K.

And the thermal conductivity (374.7 K, 376 kPa, Gas, transient hot wire)?
The thermal conductivity was 0.01734 ± 0.0011 W/m/K.

What about the thermal conductivity (374.74 K, 306 kPa, Gas, transient hot wire) of the same compound?
The thermal conductivity was 0.01741 ± 0.0011 W/m/K.

What about the thermal conductivity (374.81 K, 206 kPa, Gas, transient hot wire) of the same compound?
The thermal conductivity was 0.01763 ± 0.0011 W/m/K and 0.01767 ± 0.0011 W/m/K.

And the thermal conductivity (374.92 K, 374 kPa, Gas, transient hot wire)?
Its thermal conductivity is 0.01739 ± 0.0011 W/m/K.

And the thermal conductivity (374.92 K, 375 kPa, Gas, transient hot wire)?
The thermal conductivity was 0.01742 ± 0.0011 W/m/K.

And the thermal conductivity (374.97 K, 305 kPa, Gas, transient hot wire)?
The thermal conductivity was 0.0175 ± 0.0011 W/m/K.

And the thermal conductivity (374.97 K, 306 kPa, Gas, transient hot wire)?
The thermal conductivity was 0.01752 ± 0.0011 W/m/K.

And the thermal conductivity (375.05 K, 205 kPa, Gas, transient hot wire)?
Its thermal conductivity is 0.01769 ± 0.0011 W/m/K.

What about the thermal conductivity (375.15 K, 373 kPa, Gas, transient hot wire) of the same compound?
Its thermal conductivity is 0.01743 ± 0.0011 W/m/K.

What about the thermal conductivity (375.15 K, 374 kPa, Gas, transient hot wire) of the same compound?
The thermal conductivity was 0.01735 ± 0.0011 W/m/K.

And the thermal conductivity (375.2 K, 304 kPa, Gas, transient hot wire)?
Its thermal conductivity is 0.01738 ± 0.0011 W/m/K.

And the thermal conductivity (375.21 K, 304 kPa, Gas, transient hot wire)?
The thermal conductivity was 0.01741 ± 0.0011 W/m/K.

What about the thermal conductivity (375.3 K, 204 kPa, Gas, transient hot wire) of the same compound?
Its thermal conductivity is 0.01791 ± 0.0011 W/m/K and 0.0176 ± 0.0011 W/m/K.

And the thermal conductivity (375.4 K, 372 kPa, Gas, transient hot wire)?
Its thermal conductivity is 0.01754 ± 0.0011 W/m/K.

And the thermal conductivity (375.4 K, 373 kPa, Gas, transient hot wire)?
Its thermal conductivity is 0.01755 ± 0.0011 W/m/K.

And the thermal conductivity (375.47 K, 303 kPa, Gas, transient hot wire)?
The thermal conductivity was 0.01756 ± 0.0011 W/m/K.

And the thermal conductivity (375.48 K, 303 kPa, Gas, transient hot wire)?
Its thermal conductivity is 0.01757 ± 0.0011 W/m/K.

What about the thermal conductivity (375.57 K, 202 kPa, Gas, transient hot wire) of the same compound?
The thermal conductivity was 0.01755 ± 0.0011 W/m/K.
